Measured values from the NIST ThermoML archive (doi:10.1016/j.tca.2009.06.015).

What was measured:
[1] = xn = mol fraction of the nth substance listed; conditions: 101 kPa, Liquid; for viscosity: Capillary tube (Ostwald / Ubbelohde) method; for mass density: Vibrating tube method
[2] = refractive index (Na D-line) (dimensionless); xn = mol fraction of the nth substance listed; conditions: 101 kPa, Liquid, Standard Abbe refractometry

CCCC(C)O (stereo not given) [pentan-2-ol] + CC#N
Conditions	mass density, [1] [kg/m3]	refractive index, [2]	viscosity, [1] [mPa·s]
293.15 K, x2 = 0	809.29	1.406	4.298
293.15 K, x2 = 0.116	806.75	1.4035	2.544
293.15 K, x2 = 0.1727	805.46	1.402	2.093
293.15 K, x2 = 0.2827	802.79	1.3981	1.534
293.15 K, x2 = 0.3546	801.01	1.3951	1.262
293.15 K, x2 = 0.4458	798.66	1.3908	1.008
293.15 K, x2 = 0.5366	796.26	1.3858	0.81
293.15 K, x2 = 0.6488	793.09	1.3779	0.6391
293.15 K, x2 = 0.7671	789.52	1.3674	0.5048
293.15 K, x2 = 0.8793	786.03	1.3561	0.4119
293.15 K, x2 = 0.9578	783.59	1.3478	0.3705
298.15 K, x2 = 0	805.24	1.4045	3.478
298.15 K, x2 = 0.116	802.61	1.4012	2.17
298.15 K, x2 = 0.1727	801.25	1.3999	1.804
298.15 K, x2 = 0.2827	798.55	1.3965	1.362
298.15 K, x2 = 0.3546	796.68	1.3941	1.125
298.15 K, x2 = 0.4458	794.17	1.3901	0.9044
298.15 K, x2 = 0.5366	791.6	1.3848	0.7392
298.15 K, x2 = 0.6488	788.28	1.3764	0.5884
298.15 K, x2 = 0.7671	784.54	1.3657	0.4715
298.15 K, x2 = 0.8793	780.88	1.3548	0.391
298.15 K, x2 = 0.9578	778.28	1.3461	0.3537
303.15 K, x2 = 0	801.13	1.3724	–
303.15 K, x2 = 0.116	798.39	1.3715	1.474
303.15 K, x2 = 0.1727	796.93	1.3707	1.288
303.15 K, x2 = 0.2827	794.05	1.3694	1.069
303.15 K, x2 = 0.3546	792.08	1.3684	0.9367
303.15 K, x2 = 0.4458	789.54	1.3666	0.7975
303.15 K, x2 = 0.5366	786.91	1.3641	0.6615
303.15 K, x2 = 0.6488	783.41	1.3608	0.5492
303.15 K, x2 = 0.7671	779.52	1.3561	0.4429
303.15 K, x2 = 0.8793	775.68	1.35	0.3617
303.15 K, x2 = 0.9578	772.96	1.3433	0.3311
308.15 K, x2 = 0	796.94	1.3703	–
308.15 K, x2 = 0.116	794.1	1.3694	1.296
308.15 K, x2 = 0.1727	792.65	1.3687	1.15
308.15 K, x2 = 0.2827	789.63	1.3679	0.9576
308.15 K, x2 = 0.3546	787.6	1.367	0.846
308.15 K, x2 = 0.4458	784.92	1.3657	0.7168
308.15 K, x2 = 0.5366	782.17	1.3637	0.6057
308.15 K, x2 = 0.6488	778.55	1.3605	0.5051
308.15 K, x2 = 0.7671	774.47	1.3557	0.4111
308.15 K, x2 = 0.8793	770.45	1.3491	0.3442
308.15 K, x2 = 0.9578	767.48	1.3417	0.3202
